Where a chain is given by its changes, count along the chain named.
Tests used:
[1] = biological target: T1, R261Q-PAH (Homo sapiens, UniProt P00439, R261Q); experiment: PAH protein level and activity in HEK293 EBNA cells transiently expressing PKU mutant R261Q; format: cell-based; settings: 24 h
T1 construct: expressed in transfected cells; host or cells: HEK293 EBNA, transient, pcDNA3-PAH
T1 sequence (P00439 1-452 R261Q): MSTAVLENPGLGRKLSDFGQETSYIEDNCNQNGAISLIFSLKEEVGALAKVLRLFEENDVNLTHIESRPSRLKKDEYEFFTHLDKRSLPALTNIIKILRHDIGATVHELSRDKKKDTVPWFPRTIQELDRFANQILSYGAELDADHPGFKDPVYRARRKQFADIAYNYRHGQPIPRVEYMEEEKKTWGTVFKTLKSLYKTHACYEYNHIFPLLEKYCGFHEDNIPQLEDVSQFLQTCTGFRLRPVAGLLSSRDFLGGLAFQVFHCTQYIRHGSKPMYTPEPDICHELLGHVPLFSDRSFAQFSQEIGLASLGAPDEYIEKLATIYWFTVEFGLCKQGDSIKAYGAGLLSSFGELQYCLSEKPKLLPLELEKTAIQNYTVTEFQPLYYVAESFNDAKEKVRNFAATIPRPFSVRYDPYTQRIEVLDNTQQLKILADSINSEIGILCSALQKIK
Protocol: Cell lysates were prepared as indicated above.

[2] = biological target: truncated dimeric hPAH ΔN102/ΔC24 (Homo sapiens, UniProt P00439); settings: 137.8 μM compound, 2% DMSO, 1 mM L-Phe
truncated dimeric hPAH ΔN102/ΔC24, sequence (P00439 103-428 limits assumed): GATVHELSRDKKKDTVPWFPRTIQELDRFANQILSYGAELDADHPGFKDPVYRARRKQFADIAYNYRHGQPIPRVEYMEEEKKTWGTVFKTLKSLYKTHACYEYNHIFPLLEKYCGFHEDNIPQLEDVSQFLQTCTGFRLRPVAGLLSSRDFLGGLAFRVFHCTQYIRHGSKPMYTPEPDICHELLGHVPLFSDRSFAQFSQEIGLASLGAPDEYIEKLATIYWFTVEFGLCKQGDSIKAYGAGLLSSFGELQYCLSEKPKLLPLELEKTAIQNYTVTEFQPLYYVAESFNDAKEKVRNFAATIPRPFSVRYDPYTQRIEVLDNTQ
Protocol: Tetrameric full length wild-type (WT) human PAH (hPAH) and truncated ΔN102/ΔC24-hPAH corresponding to a dimeric form containing the catalytic domain of known crystal structure were recombinantly expressed in E. coli fused to maltose-binding protein and purified by amylose-affinity chromatography and further cleaved and isolated to homogeneity essentially as described [Martinez, A., et al., Biochem. J., 1995. 306: p. 589-597]. Protein concentration was measured in a NanoDrop spectrophotometer (Thermo Scientific) using the absorbance at 280 nm and the theoretical molar extinction coefficient of 49780 M^−1 cm^−1 for WT-PAH and 46675 M^−1 cm^−1 for ΔN102/ΔC24-hPAH.
PAH activity on isolated recombinant enzymes was measured at 37° C. for 1 min with quantification of L-Tyr formed by HPLC with fluorimetric detection, essentially as described [Martinez et al. supra] with the indicated concentrations of the compounds. […] After an equilibration of the plate at 37° C. for 3 min the reaction was initiated by adding 75 μM BH4 (Schircks Laboratories, Jona, Switzerland) in 5 mM DTT and stopped after 1 min by adding 50 μl of 2% (v/v) acetic acid in ethanol (all concentrations referred to a final reaction volume of 50 μl) prior to determination of L-Tyr produced by HPLC with fluorimetric detection (γexcitation=274 nm; γemission=304 nm). Controls with 2% DMSO without compound were routinely assayed as references for data processing. A BRAVO automated liquid handling platform was used in these assays.
The steady-state kinetic parameters were estimated with 0.25 μg hPAH (0.965 μM subunit), 1 mM L-Phe and different BH4 concentrations in the range 0-400 μM, and with 100 μM BH4 and L-Phe (0-1 mM). The saturation curves were fitted to hyperbolic (for BH4) or sigmoidal (for L-Phe) kinetic models with SigmaPlot v. 9.0. (SPSS). Kinetic parameters are presented as mean±SEM obtained from nonlinear regression analysis.

[3] = biological target: T2, R252W-PAH (Homo sapiens, UniProt P00439, R252W); experiment: PAH protein level and activity in HEK293 EBNA cells transiently expressing PKU mutant R252W; format: cell-based
T2 construct: expressed in transfected cells; host or cells: HEK293 EBNA, transient, pcDNA3-PAH
T2 sequence (P00439 1-452 R252W): T1 sequence (P00439 1-452 R261Q) with R252W, Q261R
Protocol: (§1) A similar assay was used to measure PAH activity in cells lysates using 1 mM L-Phe and 200 μM BH4 with 10 min reactions and about 20-90 μg of total protein. Free amino acids and contaminants of low molecular weight were previously removed from the extracts using Zebra Desalt Spin columns (Pierce Biotechnology).
(§2) For transient expression of WT and mutant PAH, HEK293 EBNA (Epstein-Barr virus) cells, with low endogenous PAH expression, were grown as above. Cells were grown for 19 h, when they were transfected transiently transfected with […] of pcDNA3-PAH vector (WT or mutant PAH constructs R261Q, R252W, I65T and R68S) using the Lipofectamine system (Life Technologies™) as described by the manufacturer. Compound 53, with and without BH2 (200 μM) was added after 5 h of transfection at 200 μM concentration in 1% DMSO, and further incubated for 24 h, at which time the cells were harvested and stored at −80° C. In all cases a parallel negative control with only 1% DMSO was included. Cell lysates were prepared as indicated above.
(§3) Western blot analyses were performed on either cell extracts from permanently expressing or transiently transfected HEK293 cell lysates after SDS-PAGE (10% acrylamide) with 5-10 μg total protein in each lane. […] Neomycin phosphotransferase II was used as a marker of the plasmid transfection efficiency, and GAPDH was used as loading controls. […]

[4] = biological target: R68S-PAH (Homo sapiens, UniProt P00439, R68S); settings: 200 μM, 24 h, 1% DMSO
R68S-PAH, sequence (P00439 whole entry R68S): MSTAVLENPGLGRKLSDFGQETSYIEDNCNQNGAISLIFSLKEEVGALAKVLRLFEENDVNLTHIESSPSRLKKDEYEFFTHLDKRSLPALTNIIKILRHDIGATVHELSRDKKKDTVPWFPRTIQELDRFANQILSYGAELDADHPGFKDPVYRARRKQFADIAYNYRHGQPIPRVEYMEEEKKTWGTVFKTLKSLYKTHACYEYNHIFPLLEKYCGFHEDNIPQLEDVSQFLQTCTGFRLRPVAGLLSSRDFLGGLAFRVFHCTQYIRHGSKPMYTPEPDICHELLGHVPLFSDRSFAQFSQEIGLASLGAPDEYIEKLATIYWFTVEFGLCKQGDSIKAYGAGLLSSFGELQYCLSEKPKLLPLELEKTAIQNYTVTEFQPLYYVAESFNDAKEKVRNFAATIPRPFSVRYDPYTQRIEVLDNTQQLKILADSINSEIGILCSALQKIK
Protocol: as §1, §2, §3

[5] = biological target: tryptophan hydroxylase 2 (TPH2) (Homo sapiens, UniProt Q8IWU9); settings: 68.9 μM, respect to 2% DMSO controls
tryptophan hydroxylase 2 (TPH2), sequence (Q8IWU9 whole entry, species assumed): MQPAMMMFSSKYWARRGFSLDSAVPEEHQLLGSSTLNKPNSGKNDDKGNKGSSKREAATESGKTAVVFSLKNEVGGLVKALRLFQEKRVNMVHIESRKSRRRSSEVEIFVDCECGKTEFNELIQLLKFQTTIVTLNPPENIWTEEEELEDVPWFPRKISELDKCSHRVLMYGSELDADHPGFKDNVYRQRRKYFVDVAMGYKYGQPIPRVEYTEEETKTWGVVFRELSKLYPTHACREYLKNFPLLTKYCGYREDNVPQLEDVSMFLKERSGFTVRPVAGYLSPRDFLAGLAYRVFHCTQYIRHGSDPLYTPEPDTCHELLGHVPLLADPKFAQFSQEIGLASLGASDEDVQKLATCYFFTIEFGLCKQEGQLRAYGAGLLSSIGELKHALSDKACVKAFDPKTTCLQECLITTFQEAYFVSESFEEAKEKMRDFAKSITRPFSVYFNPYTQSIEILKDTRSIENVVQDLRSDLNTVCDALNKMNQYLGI

COc1cc(Cc2cnc(N)nc2N)cc(OC)c1OC [c53, trimethoprim]
protein and activity, mutant R261Q, Compound 53 and BH2 together ([1]; 200 μM each): trends for additive effects
PAH activity, mutant R261Q ([1]; 200 μM, 1% DMSO): greatly increased
hPAH protein level, mutant R261Q ([1]; 200 μM, 1% DMSO): greatly increased
effect on Vmax and Km for BH4 [2]: did not change the Vmax or Km-values for BH4
effect on mutant R252W (protein, activity) ([3]; 200 μM alone, 24 h, 1% DMSO): neither the compound or BH4 affected
protein content, mutant R252W, compound and cofactor analogue together ([3]; Compound 53 200 μM plus BH2 200 μM, 24 h (FIG. 2D)): a little stimulation of the protein content
PAH activity, mutant R68S [4]: An effect
effect on TPH2 activity [5]: did not have large effect
